What is called IC50 is the point on the concentration scale where inhibition reaches its midpoint. A low value points to higher potency.

The values below come from US20170253607A1, “LONG-ACTING HIV PROTEASE INHIBITOR” (Shionogi & Co., Ltd., priority 2014, published 2017).

Each structure is given as a SMILES string.

One series has as its target HIV-1 PR (Human immunodeficiency virus type 1 group M subtype B, UniProt P04585). As to the kind of experiment: HIV-protease inhibitory activity assay (FRET peptide substrate). It is filed as biochemical. The following applies: Test Example 1. The essentials: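 Compounds were preincubated with HIV-1 PR (0.83 ng) at room temperature in pH 4.8 NaAc buffer (0.5 M NaCl, EDTA, DTT, Tween 20), then HiLyte Fluor 488/QXL 520 FRET peptide (2 μmol/L final) was added for 60 min. Fluorescence was read at 485/535 nm, and IC50 was fitted by four-parameter logistic regression.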

Series [1] in a line: Protein binding test (equilibrium dialysis, unbound ratio fu in serum). The format is in vitro ADME. To be noted: rat serum, equilibrium dialysis 24 hours, 37° C., 2 μg/mL. The essentials: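 Compound at 2 μg/mL in serum was dialysed against PBS for 24 hours at 37° C. Both sides were quantified by LC/MS/MS, and fu was taken as the PBS concentration divided by the serum concentration.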

Series [2] can be described thus: Evaluation of total body clearance (CLtot), intravenous administration. It is filed as in vivo, Sprague-Dawley (SD). To be noted: rat (SD), intravenous administration 0.5-10 mg/kg; CLtot = dose/AUC. The essentials:
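Compounds given as a single tail-vein injection at 0.5-10 mg/kg (n=2-3), dose varying by compound. Plasma sampled at scheduled times and measured by LC/MS/MS; CLtot derived as dose divided by AUC from pharmacokinetic analysis.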

On HIV-1 PR, `COc1ccc(S(=O)(=O)N(CC(C)C)CC(O)C(Cc2ccc(N(C)Cc3cc(C(F)(F)F)ccc3-n3nc4c(c3C(=O)O)CC(C)(C)CC4)cc2)NC(=O)OC2COC3(C)OCCC23)cc1` (stereo not drawn) [Compound I-379] had an IC50 of 4.42 nM. Also, in series [1], the rat_fu is under 0.1%. The rat_CLt in series [2] is recorded as 0.173 mL/min/kg.
For `COc1ccc(S(=O)(=O)N(CC(C)C)CC(O)C(Cc2ccc(SCc3ccccc3-c3sc4c(c3C(=O)O)CC(C)(C)CC4)cc2)NC(=O)OC2COC3(C)OCCC23)cc1` (stereo not drawn) [Compound I-380], in that order: 5.51 nM, under 0.1% and 0.702 mL/min/kg.
`COc1ccc(S(=O)(=O)N(CC(C)C)CC(O)C(Cc2ccc(NCc3cnc4ccccc4c3-c3sc4c(c3C(=O)O)CC(C)(C)CC4)cc2)NC(=O)OC2COC3(C)OCCC23)cc1` (stereo not drawn) [Compound I-384] came in with an IC50 on HIV-1 PR of 6.62 nM. For the same compound, the rat_fu in series [1] is under 0.1%. The same compound registered a rat_CLt in series [2] of 0.253 mL/min/kg.
For `COc1ccc(S(=O)(=O)N(CC(C)C)CC(O)C(Cc2ccc(CN3CCc4c(-c5sc6c(c5C(=O)O)CC(C)(C)CC6)cccc43)cc2)NC(=O)OC2COC3(C)OCCC23)cc1` (stereo not drawn) [Compound I-386], in that order: 5.89 nM, under 0.1% and 4.96 mL/min/kg.
For `COc1ccc(S(=O)(=O)N(CC(C)C)CC(O)C(Cc2ccc(CN3CCc4ccc(-c5sc6c(c5C(=O)O)CC(C)(C)CC6)cc4C3)cc2)NC(=O)OC2COC3(C)OCCC23)cc1` (stereo not drawn) [Compound I-389], in that order: 1.79 nM, under 0.1% and 14 mL/min/kg.
In the same order, the values of `COc1ccc(S(=O)(=O)N(CC(C)C)CC(O)C(Cc2ccc(N(C)C3CN(c4ccc(-c5sc6c(c5C(=O)O)CC(C)(C)CC6)cc4)C3)cc2)NC(=O)OC2COC3(C)OCCC23)cc1` (stereo not drawn) [Compound I-391] are 3.94 nM, under 0.1% and 10.3 mL/min/kg.
`COc1ccc(S(=O)(=O)N(CC(C)C)C[C@@H](O)[C@H](Cc2ccc(NCc3ccccc3C(=O)Nc3sc4c(c3C(=O)O)CC(C)(C)CC4)cc2)NC(=O)O[C@H]2CO[C@@]3(C)OCC[C@@H]23)cc1` [Compound I-396] came in with a concentration for half-maximal inhibition (IC50) on HIV-1 PR of 2.76 nM. In addition, in series [1], the rat_fu is on record as under 0.1%. Also, in series [2], the rat_CLt is 0.0572 mL/min/kg.
For `COc1ccc(S(=O)(=O)N(CC(C)C)CC(O)C(Cc2ccc(N(C)C3Cc4cccc(-c5sc6c(c5C(=O)O)CC(C)(C)CC6)c4C3)cc2)NC(=O)OC2COC3(C)OCCC23)cc1` (stereo not drawn) [Compound I-405], in that order: 2.42 nM, under 0.1% and 3.27 mL/min/kg.
For `COc1ccc(S(=O)(=O)N(CC(C)C)CC(O)C(Cc2ccc(N3CC(C)C(Oc4ccccc4-c4sc5c(c4C(=O)O)CC(C)(C)CC5)C3)cc2)NC(=O)OC2COC3(C)OCCC23)cc1` (stereo not drawn) [Compound I-406], in that order: 1.89 nM, under 0.1% and 4.61 mL/min/kg.
In the same order, the values of `COc1ccc(S(=O)(=O)N(CC(C)C)CC(O)C(Cc2ccc(NCc3ncccc3-c3ccc(-c4sc5c(c4C(=O)O)CC(C)(C)CC5)cc3)cc2)NC(=O)OC2COC3(C)OCCC23)cc1` (stereo not drawn) [Compound I-415] are 2.55 nM, under 0.1% and 0.66 mL/min/kg.
For `COc1ccc(S(=O)(=O)N(CC(C)C)CC(O)C(Cc2ccc(NCc3ccccc3-c3sc4c(c3C(=O)O)CC(C)(C)CC4(C)C)cc2)NC(=O)OC2COC3(C)OCCC23)cc1` (stereo not drawn) [Compound I-418], the 50% inhibitory concentration (IC50) against HIV-1 PR is 2.21 nM. In series [1], the rat_fu is given as under 0.1%. In series [2], this compound returned a rat_CLt of 1.49 mL/min/kg.
For `COc1ccc(S(=O)(=O)N(CC(C)C)CC(O)C(Cc2ccccc2)NC(=O)OC2COC3(COC(=O)NCc4sc5c(c4C(=O)O)CC(C)(C)CC5)OCCC23)cc1` (stereo not drawn) [Compound I-780], in that order: 1.64 nM, under 0.1% and 2.23 mL/min/kg.
In the same order, the values of `CC(C)CN(CC(O)C(Cc1ccccc1)NC(=O)OC1COC2(C)OCCC12)S(=O)(=O)c1ccc2nc(NCc3ccc(-c4sc5c(c4C(=O)O)CC(C)(C)CC5)cc3)sc2c1` (stereo not drawn) [Compound I-798] are 0.99 nM, under 0.1% and 4.54 mL/min/kg.
For `COc1ccc(S(=O)(=O)N(CC(C)C)CC(O)C(Cc2ccc(OCc3ccccc3-n3nc4c(c3C(=O)O)CC(C)(C)CC4)cc2)NC(=O)OC2COC3OCCC23)cc1` (stereo not drawn) [Compound I-807], in that order: 0.86 nM, under 0.1% and 0.61 mL/min/kg.
With `COc1ccc(S(=O)(=O)N(CC(C)C)CC(O)C(Cc2ccc(OCc3ccccc3-c3sc(Cl)c(C4CCCCC4)c3C(=O)O)cc2)NC(=O)OC2COC3OCCC23)cc1` (stereo not drawn) [Compound I-825], on HIV-1 PR, the IC50 was 1.02 nM. Also, in series [1], the rat_fu was under 0.1%. In addition, the rat_CLt in series [2] came out at 5.22 mL/min/kg.
In the same order, the values of `COc1ccc(S(=O)(=O)N(CC(C)C)CC(O)C(Cc2ccc(OCc3ccccc3-c3sc4c(c3C(=O)O)CC(C)(C)CC4)cc2)NC(=O)OC2COC3OCCC23)cc1` (stereo not drawn) [Compound I-826] are 1.18 nM, under 0.1% and 0.823 mL/min/kg.
For `COc1ccc(S(=O)(=O)N(CC(C)C)CC(O)C(Cc2ccc(OCc3ncccc3-c3sc4c(c3C(=O)O)CC(C)(C)CC4)cc2)NC(=O)OC2COC3OCCC23)cc1` (stereo not drawn) [Compound I-827], in that order: 0.81 nM, under 0.1% and 4.21 mL/min/kg.
In turn, `COc1ccc(S(=O)(=O)N(CC(C)C)CC(O)C(Cc2ccc(OCc3ccccc3-c3sc4c(c3C(=O)O)CCC4)cc2)NC(=O)OC2COC3OCCC23)cc1` (stereo not drawn) [Compound I-832] came in with an IC50 on HIV-1 PR of 1.16 nM. For the same compound, in series [1], the rat_fu is under 0.1%. Moreover, in series [2], the rat_CLt came out at 4.09 mL/min/kg.
For `Cc1cc(Oc2ccc(CC(NC(=O)OC3COC4OCCC34)C(O)CN(CC(C)C)S(=O)(=O)c3ccc4c(c3)OCO4)cc2)ccc1-c1sc2c(c1C(=O)O)CC(C)(C)CC2` (stereo not drawn) [Compound I-835], in that order: 2.81 nM, under 0.1% and 1.63 mL/min/kg.
In the same order, the values of `COc1ccc(S(=O)(=O)N(CC(C)C)CC(O)C(Cc2ccc(Oc3ccc(-c4sc5c(c4C(=O)O)CC(C)(C)CC5)c(F)c3)cc2)NC(=O)OC2COC3OCCC23)cc1` (stereo not drawn) [Compound I-836] are 1.76 nM, under 0.1% and 4.31 mL/min/kg.
In the same order, the values of `COc1ccc(S(=O)(=O)N(CC(C)C)CC(O)C(Cc2ccc(OCc3ccccc3-c3ccc4c(c3)C(=O)C(c3ccc(F)cc3)C4=O)cc2)NC(=O)OC2COC3OCCC23)cc1` (stereo not drawn) [Compound I-841] are 2.21 nM, under 0.1% and 2.38 mL/min/kg.
Take `COc1ccc(S(=O)(=O)N(CC(C)C)CC(O)C(Cc2ccc(OCc3ccccc3-c3ccc(Oc4ccc(-c5c(O)c6ccc(Cl)cc6[nH]c5=O)cc4)cc3)cc2)NC(=O)OC2COC3OCCC23)cc1` (stereo not drawn) [Compound I-847]: on HIV-1 PR, the 50% inhibitory concentration (IC50) amounted to 3.38 nM. For the same compound, the rat_fu in series [1] is reported as under 0.1%. In series [2], this compound had a rat_CLt of 6 mL/min/kg.
For `COc1ccc(S(=O)(=O)N(CC(C)C)CC(O)C(Cc2ccc(NCc3ccc4ccccc4c3-c3sc4c(c3C(=O)O)CC(C)(C)CC4)cc2)NC(=O)OC2COC3OCCC23)cc1` (stereo not drawn) [Compound I-851], in that order: 2.57 nM, under 0.1% and 0.298 mL/min/kg.
For `COC(=O)NC(C(=O)NC(Cc1ccc(-c2sc3c(c2C(=O)O)CC(C)(C)CC3)cc1)C(O)CC(Cc1ccccc1F)C(=O)NC1c2cc(F)cc(Cl)c2OCC1O)C(C)(C)C` (stereo not drawn) [Compound I-903], in that order: 2.23 nM, under 0.1% and 0.0436 mL/min/kg.
Turning to `COc1ccc(S(=O)(=O)N(CC(C)C)C[C@@H](O)[C@H](Cc2ccc(OCc3ccccc3-c3sc4c(c3C(=O)O)CC(C)(C)CC4)cc2)NC(=O)OC2CO[C@H]3OC[C@H](OC)[C@@H]23)cc1` (stereo partly drawn) [Compound I-907], on HIV-1 PR, the IC50 came out at 1.27 nM. Further, the rat_fu in series [1] is given as under 0.1%. In series [2], this compound came in with a rat_CLt of 0.73 mL/min/kg.
In the same order, the values of `COc1ccc(S(=O)(=O)N(CC(C)C)C[C@@H](O)[C@H](Cc2ccc(OCc3ccccc3-c3sc4c(c3C(=O)O)CC(C)(C)CC4)cc2)NC(=O)O[C@H]2CCO[C@H]3OCC[C@H]32)cc1` [Compound I-908] are 1.21 nM, under 0.1% and 0.63 mL/min/kg.
